≈ marks a conversion by molar mass, not a printed value. Bridge positions count the residues as written; N and C are the ends. Peptide text beside a SMILES is read from it.
Assays:
L929 fibroblast cells = assay: Bioluminescent mammalian cytotoxicity assay; type: cell-based, murine; settings: L929 fibroblasts, up to 64 μg/mL, 8 h of exposure, bioluminescence
Protocol: Real-time killing of bacterial cells, P. aeruginosa or S. aureus, and mammalian cytotoxicity to assess dAMP off-target toxicity was evaluated using bioluminescent cells. The L929 fibroblast cells (ATCC, Manassas, VA, USA) were made bioluminescent by transfection with a luciferase gene. Cells (1 × 10^4 cells, 100 μL) were plated in 96-well black-walled plates and the candidate dAMPs were 2-fold serially diluted from specified concentrations in growth medium supplemented with 150 μg/mL D-luciferin. Each concentration was performed in triplicate, with the final volume being 200 μL. Imaging was performed at select times after the addition of the dAMP, and compared to concurrently run vehicle-control, using an IVIS Lumina imaging system (Caliper Life Sciences, Inc., Hopkinton, MA, USA). For imaging, the 96-well plate was positioned on the stage (12.5-cm field of view), with an open emission filter, binning of 4, and f-stop 1 and a 1-min exposure time. Monitoring bioluminescence allows assessment of the kinetics of cellular viability as there is a tight correlation between the bioluminescent signal and cell viability. […]
Figure 2 RP504, RP556 and RP557 induce limited mammalian cell toxicity. […] Cells were plated at 1×10^4 cells/well, allowed to adhere overnight and the specific dAMP added, and cytotoxicity evaluated through 8 h. […]

K. pneumonia 6069 = type: cell-based, Klebsiella pneumoniae; settings: cation adjusted Mueller-Hinton broth, ~10^6 CFU/mL, 24 h, 37 °C, OD600 <0.1 in at least 3 of 4 wells, 2-128 μg/mL; shaded values previously reported ref 18
How it was run: (§1)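 MIC = lowest dAMP level giving OD600 <0.1 in at least three of four replicate wells after 24 h at 37 °C. Inoculum ~10^6 CFU/mL in 2X cation-adjusted Mueller–Hinton broth; potato dextrose broth for the fungal isolate. Test range 2–128 μg/mL plus untreated.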

K. pneumonia ATCC 10031 = type: cell-based, Klebsiella pneumoniae; settings: cation adjusted Mueller-Hinton broth, ~10^6 CFU/mL, 24 h, 37 °C, OD600 <0.1 in at least 3 of 4 wells, 2-128 μg/mL; shaded values previously reported ref 18
How it was run: as §1

[1] = system: S. aureus 49525 (Xen36 luciferase); type: cell-based, Staphylococcus aureus; settings: 8 μg/mL, 60 min incubation, bioluminescence, triplicates from two independent experiments
Source text: (§2) Fungal and bacterial strains were obtained from American Type Culture Collection (ATCC, Manassas, VA, USA) or the clinical isolate collection at Trideum Biosciences (Frederick, MD, USA) and are presented in Table 1 and Table 2, respectively. Bioluminescence strains of P. aeruginosa 19660, transfected with the Xen5 luciferase gene, and S. aureus ATCC R 49525TM (Wright), transfected with the Xen36 luciferase gene, were obtained from Perkin Elmer (Waltham, MA, USA).
(§3) Real-time killing of bacterial cells, P. aeruginosa or S. aureus, and mammalian cytotoxicity to assess dAMP off-target toxicity was evaluated using bioluminescent cells. The L929 fibroblast cells (ATCC, Manassas, VA, USA) were made bioluminescent by transfection with a luciferase gene. Cells (1 × 10^4 cells, 100 μL) were plated in 96-well black-walled plates and the candidate dAMPs were 2-fold serially diluted from specified concentrations in growth medium supplemented with 150 μg/mL D-luciferin. Each concentration was performed in triplicate, with the final volume being 200 μL. Imaging was performed at select times after the addition of the dAMP, and compared to concurrently run vehicle-control, using an IVIS Lumina imaging system (Caliper Life Sciences, Inc., Hopkinton, MA, USA). For imaging, the 96-well plate was positioned on the stage (12.5-cm field of view), with an open emission filter, binning of 4, and f-stop 1 and a 1-min exposure time. Monitoring bioluminescence allows assessment of the kinetics of cellular viability as there is a tight correlation between the bioluminescent signal and cell viability. Data analysis was performed using the Living Image software program (version 4.3, Caliper Life Sciences, Inc., Hopkinton, MA, USA).
(§4) Figure 3 RP553, RP556, RP557 rapidly destroy P. aeruginosa and S. aureus. The bioluminescence of viable P. aeruginosa 19,660 and S. aureus 49,525 cells was quantitated in real time with an IVIS Lumina bioimaging system. Data represent the mean ± SE of triplicate replicates from two independent experiments. For some points, the error bars are shorter than the height of the symbols.

A. baumannii 6838 = type: cell-based, Acinetobacter baumannii; settings: cation adjusted Mueller-Hinton broth, ~10^6 CFU/mL, 24 h, 37 °C, OD600 <0.1 in at least 3 of 4 wells, 2-128 μg/mL; shaded values previously reported ref 18
How it was run: as §1

A. baumannii 6043 = type: cell-based, Acinetobacter baumannii; settings: cation adjusted Mueller-Hinton broth, ~10^6 CFU/mL, 24 h, 37 °C, OD600 <0.1 in at least 3 of 4 wells, 2-128 μg/mL; shaded values previously reported ref 18
How it was run: as §1

A. baumannii ATCC 17978 = type: cell-based, Acinetobacter baumannii; settings: cation adjusted Mueller-Hinton broth, ~10^6 CFU/mL, 24 h, 37 °C, OD600 <0.1 in at least 3 of 4 wells, 2-128 μg/mL; shaded values previously reported ref 18
How it was run: as §1

MRSA 6381 = type: cell-based, Staphylococcus aureus; settings: cation adjusted Mueller-Hinton broth, ~10^6 CFU/mL, 24 h, 37 °C, OD600 <0.1 in at least 3 of 4 wells, 2-128 μg/mL; shaded values previously reported ref 18
How it was run: as §1

MRSA 6313 = type: cell-based, Staphylococcus aureus; settings: cation adjusted Mueller-Hinton broth, ~10^6 CFU/mL, 24 h, 37 °C, OD600 <0.1 in at least 3 of 4 wells, 2-128 μg/mL; shaded values previously reported ref 18
How it was run: as §1

MRSA ATCC 33592 = type: cell-based, Staphylococcus aureus; settings: cation adjusted Mueller-Hinton broth, ~10^6 CFU/mL, 24 h, 37 °C, OD600 <0.1 in at least 3 of 4 wells, 2-128 μg/mL; shaded values previously reported ref 18
How it was run: as §1

S. aureus 6061 = type: cell-based, Staphylococcus aureus; settings: cation adjusted Mueller-Hinton broth, ~10^6 CFU/mL, 24 h, 37 °C, OD600 <0.1 in at least 3 of 4 wells, 2-128 μg/mL; shaded values previously reported ref 18
How it was run: as §1

S. aureus B-767 = type: cell-based, Staphylococcus aureus; settings: cation adjusted Mueller-Hinton broth, ~10^6 CFU/mL, 24 h, 37 °C, OD600 <0.1 in at least 3 of 4 wells, 2-128 μg/mL; shaded values previously reported ref 18
How it was run: as §1

[2] = system: P. aeruginosa 19660 (Xen5 luciferase); assay: Bioluminescent time-kill assay; type: cell-based, Pseudomonas aeruginosa; settings: 8 μg/mL; RP553 at 60 min; bioluminescence
Source text: as §2, §3, §4

[3] = system: vulvovaginal candidiasis infection; settings: cited from earlier work
Source text: The dAMPs RP504, RP554 and RP557 were thus tested for their ability to treat a rodent vulvovaginal candidiasis infection. […] A daily dose with a 2% concentration lowered the CFU/sample by more than 4 logs compared to the con ...

[4] = system: preformed and mature MRSA biofilm; settings: cited from earlier work
Source text: (§5) Early and empiric treatment is required due to the rapid emergence of both bacterial and fungal resistance and resilience due to biofilm formation multi-drug resistant organisms and their associated biofilms play a significant role in the pathogenicity and chronicity of wound infections. The resistance of bacteria and fungi residing in biofilms is due to the biofilm matrix acting as a fortified barrier and the presence of slow-growing microbes with poor metabolic activity, known as persisters. The dAMPs direct perturbation of cellular membranes is effective at eradicating biofilms. RP55 ...

Candida biofilm = settings: cited from earlier work
Source text: as §5

CC[C@H](C)[C@@H]1NC(=O)CNC(=O)[C@H](CCCCN)NC(=O)[C@H](Cc2ccc(O)cc2)NC(=O)[C@@H]2CSSC[C@H](NC1=O)C(=O)N[C@@H](Cc1ccccc1)C(=O)N[C@@H](CCCCN)C(=O)N[C@@H](CCCCN)C(=O)N[C@H](C(=O)N[C@@H](CCCCN)C(N)=O)CSSC[C@H](NC(=O)[C@H](Cc1ccccc1)NC(=O)[C@@H](N)CCCNC(=N)N)C(=O)N[C@@H](Cc1c[nH]c3ccccc13)C(=O)N[C@@H](CCCCN)C(=O)N[C@@H](C(C)C)C(=O)N2 [RP557] (H-RFCWKVCYKGICFKKCK-NH2; disulfide 3-16, 7-12)
mammalian cell toxicity (in words) (L929 fibroblast cells): Limited toxicity | MIC against K. pneumonia 6069 (K. pneumonia 6069): 4 µg/mL (≈ 1.87 µM) | MIC against K. pneumonia ATCC 10031 (K. pneumonia ATCC 10031): 8 µg/mL (≈ 3.75 µM) | S. aureus killing [1]: 70% | MIC against A. baumannii 6838 (A. baumannii 6838): 8 µg/mL (≈ 3.75 µM) | MIC against A. baumannii 6043 (A. baumannii 6043): 8 µg/mL (≈ 3.75 µM) | MIC against A. baumannii ATCC 17978 (A. baumannii ATCC 17978): 16 µg/mL (≈ 7.49 µM) | MIC against MRSA 6381 (MRSA 6381): 4 µg/mL (≈ 1.87 µM) | MIC against MRSA 6313 (MRSA 6313): 4 µg/mL (≈ 1.87 µM) | MIC against MRSA ATCC 33592 (MRSA ATCC 33592): 4 µg/mL (≈ 1.87 µM) | MIC against S. aureus 6061 (S. aureus 6061): 8 µg/mL (≈ 3.75 µM) | MIC against S. aureus B-767 (S. aureus B-767): 4 µg/mL (≈ 1.87 µM) | P. aeruginosa killing (in words) [2]: immediate eradication | lowering of CFU/sample compared to control samples ([3]; daily dose with a 2% concentration, dose-response protocol): more than 4 logs | reduction of CFU/tissue sample ([3]; rodent vulvovaginal candidiasis, after three days of daily treatment): ≥ 2.5 logs | disruption of preformed and mature MRSA biofilm [4]: completely disrupted | disruption of Candida biofilm (Candida biofilm): completely disrupted

Reference: paper PMC7559897, “Designed Antimicrobial Peptides Against Trauma-Related Cutaneous Invasive Fungal Wound Infections” (Journal of Fungi, 2020)
